± gives the uncertainty stated by the source.
Experiment: xn = mol fraction of the nth substance listed

CCC(=O)O + NC=O
viscosity [mPa·s]
Conditions	298.15 K	303.15 K	308.15 K	313.15 K
101 kPa, x2 = 0.1002	2.15 ± 0.07	–	–	1.52 ± 0.039
101 kPa, x2 = 0.1949	3.368 ± 0.14	–	–	2.231 ± 0.076
101 kPa, x2 = 0.2992	4.445 ± 0.21	–	–	2.877 ± 0.11
101 kPa, x2 = 0.3979	5.67 ± 0.3	–	–	3.546 ± 0.15
101 kPa, x2 = 0.4976	6.48 ± 0.36	–	–	4.16 ± 0.2
101 kPa, x2 = 0.5987	6.98 ± 0.4	–	–	4.528 ± 0.22
101 kPa, x2 = 0.7338	7.19 ± 0.42	–	–	4.708 ± 0.23
101 kPa, x2 = 0.8115	6.92 ± 0.4	–	–	4.48 ± 0.22
101 kPa, x2 = 0.9101	5.59 ± 0.3	–	–	3.551 ± 0.15
101 kPa, x2 = 0.976	3.838 ± 0.28	–	–	–
101.33 kPa, x2 = 0.0769	1.4 ± 0.07	1.28 ± 0.06	1.19 ± 0.06	1.09 ± 0.06
101.33 kPa, x2 = 0.1507	1.89 ± 0.1	1.7 ± 0.09	1.57 ± 0.08	1.46 ± 0.07
101.33 kPa, x2 = 0.2323	2.54 ± 0.13	2.25 ± 0.11	2.05 ± 0.1	1.89 ± 0.1
101.33 kPa, x2 = 0.3109	3.21 ± 0.16	2.78 ± 0.14	2.5 ± 0.13	2.27 ± 0.11
101.33 kPa, x2 = 0.393	3.83 ± 0.19	3.28 ± 0.17	2.94 ± 0.15	2.64 ± 0.13
101.33 kPa, x2 = 0.4098	3.92 ± 0.2	3.37 ± 0.17	3.01 ± 0.15	2.69 ± 0.14
101.33 kPa, x2 = 0.4649	4.24 ± 0.21	3.62 ± 0.18	3.23 ± 0.16	2.89 ± 0.15
101.33 kPa, x2 = 0.5404	4.48 ± 0.23	3.83 ± 0.19	3.41 ± 0.17	3.03 ± 0.15
101.33 kPa, x2 = 0.6138	4.8 ± 0.24	4.06 ± 0.2	3.6 ± 0.18	3.2 ± 0.16
101.33 kPa, x2 = 0.6916	4.7 ± 0.24	4.01 ± 0.2	3.57 ± 0.18	3.18 ± 0.16
101.33 kPa, x2 = 0.7633	4.49 ± 0.23	3.84 ± 0.19	3.43 ± 0.17	3.07 ± 0.15
101.33 kPa, x2 = 0.8461	4.22 ± 0.21	3.63 ± 0.18	3.26 ± 0.16	2.93 ± 0.15
101.33 kPa, x2 = 0.9226	3.75 ± 0.19	3.25 ± 0.16	2.94 ± 0.15	2.66 ± 0.13

CCCOC(=O)CC + CCCCCCCCCC
298.15 K, 101.33 kPa
Conditions	viscosity [mPa·s]
x2 = 0.0964	0.647 ± 0.007
x2 = 0.1323	0.65 ± 0.007
x2 = 0.1683	0.653 ± 0.007
x2 = 0.2534	0.661 ± 0.007
x2 = 0.3486	0.672 ± 0.007
x2 = 0.3989	0.68 ± 0.008
x2 = 0.5459	0.706 ± 0.008
x2 = 0.6381	0.728 ± 0.009
x2 = 0.7337	0.756 ± 0.009
x2 = 0.8679	0.802 ± 0.01
x2 = 0.9275	0.827 ± 0.011

CCCCCCCCCCCCCC[P+](CCCCCC)(CCCCCC)CCCCCC.c1c[n-]nn1 + O
Conditions	viscosity [mPa·s]
298.15 K, 100 kPa, x2 = 0.8003	106 ± 3

Nc1cccc(Cl)c1 + Brc1ccccc1
100 kPa
Conditions	viscosity [mPa·s]
313.15 K, x1 = 0.6782	2.875 ± 0.1
318.15 K, x1 = 0.0902	1.155 ± 0.1

CCCCCCCCCCCCCC[P+](CCCCCC)(CCCCCC)CCCCCC.c1c[n-]nn1 + CCCCCCn1cc[n+](C)c1.O=S(=O)([N-]S(=O)(=O)C(F)(F)F)C(F)(F)F
viscosity [mPa·s], 100 kPa
Conditions	293.15 K	298.15 K	303.15 K	308.15 K	313.15 K	318.15 K	323.15 K
x1 = 0.151	159 ± 20	122 ± 15	96 ± 12	77 ± 9	62 ± 7	51 ± 6	–
x1 = 0.302	268 ± 33	200 ± 25	152 ± 19	119 ± 14	94 ± 11	76 ± 9	62 ± 8
x1 = 0.42	402 ± 51	294 ± 37	219 ± 27	168 ± 21	131 ± 16	104 ± 13	84 ± 10
x1 = 0.55	498 ± 64	358 ± 45	262 ± 33	197 ± 24	151 ± 18	118 ± 14	94 ± 11
x1 = 0.652	614 ± 80	437 ± 56	317 ± 40	236 ± 29	180 ± 22	139 ± 17	109 ± 13
x1 = 0.7	725 ± 95	511 ± 66	369 ± 47	274 ± 34	206 ± 25	159 ± 19	125 ± 15
x1 = 0.865	744 ± 97	527 ± 68	382 ± 48	284 ± 35	215 ± 27	166 ± 20	131 ± 16

Source: the CheMixHub viscosity set
